Laboratory results as given in patent US10709707B2, “Methods of treating ocular conditions” (Oyster Point Pharma, Inc., priority 2016, dated 2020).
“Also recorded” adds a separate entry of the source.

Key:
[1] = target: T1, α4β2 nicotinic acetylcholine receptor (Rattus norvegicus, UniProt P09483+P12390); assay: Receptor binding α4β2, inhibition of [3H]-(S)-nicotine binding, rat brain membranes
T1 construct: from tissue; host or cells: rat brain cortical membranes

[2] = target: human α4β2 (Homo sapiens, UniProt P17787+P43681); assay: Receptor binding α4β2, recombinant human receptors in SH-EP1 cells; details: [3H]-S-nicotine, human α4β2 expressed in SH-EP1 cells
[3] = target: a6/a3b2b3 (Homo sapiens, UniProt P17787+P32297+Q15825); assay: Receptor function a6/a3b2b3, Ca++ flux; assay type: cell-based
[4] = target: high and low sensitivity alpha4beta2-containing NNR subtypes (Homo sapiens, UniProt P17787+P43681); assay: Electrophysiology studies; assay type: cell-based
Description: It is readily absorbed following oral administration and has favorable pharmacokinetics.

[5] = test system: neuronal nicotinic receptors; assay: In vitro binding (off-target receptors) at 10 μM; details: hemigalactarate salt
[6] = test system: formalin test; assay: Analgesic effects, formalin test; assay type: in vivo, Mouse: CD-1; details: po; Compound 1 0.1, 1 and 10 mg/kg, Aspirin 100 mg/kg, Morphine 30 mg/kg
[7] = test system: paclitaxel-induced neuropathy, allodynia; assay: Reversing symptoms of paclitaxel-induced neuropathy; assay type: in vivo, Rat
[8] = test system: STZ rat model of diabetic neuropathy; assay: Mechanical allodynia, STZ rat model of diabetic neuropathy; assay type: in vivo, Rat: Sprague-Dawley
[9] = test system: behavioral sensitization; assay: CNS safety pharmacology, behavioral sensitization by motor activity; assay type: in vivo, Rat: Sprague-Dawley
[10] = test system: pentylenetetrazole convulsions; assay: CNS safety pharmacology, convulsant properties with subconvulsant pentylenetetrazole; assay type: in vivo, Rat: Sprague-Dawley
[11] = test system: Rabbit Purkinje fibers; assay: Cardiovascular safety, rabbit Purkinje fibers in vitro
[12] = Solubility in aqueous solutions; assay type: physicochemical
[13] = Stability study of drug substance; assay type: physicochemical
Procedure: A previous cGMP lot of Compound 1 was manufactured.
There was a slight decrease in assay value below the 98% specification at 6 month 40° C./75% RH and 9 month 30° C./65% RH. However, based on the minimal change at accelerated conditions and the stability of the real time data, the drug substance is currently considered to be stable for at least 36 months.

[14] = Single dose pharmacokinetics studies; assay type: in vivo; details: Swiss (mouse), Sprague-Dawley (rat), cynomolgus (monkey), plasma, oral, rat and monkey, read-out: time to reach maximum concentration (Tmax)
Procedure: In a monkey study, [^14C]-Compound 1 was given at 10 mg/kg orally or 5 mg/kg by iv infusion. Oral bioavailability in this study was about 30%.

[15] = 2-week and 13-week repeated dose TK studies, monkey; assay type: in vivo; details: for emesis: 100 mg/kg/day
Procedure: In 2-week and 13-week repeated dose TK studies in monkey, animals were dosed orally at 10, 30 or 100 mg/kg/day (2-week study) or at 10, 30 or 60 mg/kg/day (13-week study). […] In the 2-week study, exposure increased roughly proportional to dose from 10 to 30 mg/kg/day on Days 1 and 14 and less than proportionally from 30 to 100 mg/kg/day on Days 1 and 14; emesis in the 100 mg/kg/day dose group, 6/6 animals on Day 1 and 5/6 animals on Day 14, may have contributed to this. There was little accumulation in any dose group from Day 1 to Day 14.

[16] = binding to red blood cells and blood/plasma ratio; assay type: in vitro ADME; details: broadly species and concentration independent
Procedure: Binding of Compound 1 to red blood cells was 28 to 54% directly after spiking and 41 to 63% at 0.5 and 1 hour after spiking. The blood/plasma ratios ranged from 0.78 to 1.26 and were broadly species and concentration independent.

a6/a3b2b3, sequence (Q15825+P32297 fused with the stated changes): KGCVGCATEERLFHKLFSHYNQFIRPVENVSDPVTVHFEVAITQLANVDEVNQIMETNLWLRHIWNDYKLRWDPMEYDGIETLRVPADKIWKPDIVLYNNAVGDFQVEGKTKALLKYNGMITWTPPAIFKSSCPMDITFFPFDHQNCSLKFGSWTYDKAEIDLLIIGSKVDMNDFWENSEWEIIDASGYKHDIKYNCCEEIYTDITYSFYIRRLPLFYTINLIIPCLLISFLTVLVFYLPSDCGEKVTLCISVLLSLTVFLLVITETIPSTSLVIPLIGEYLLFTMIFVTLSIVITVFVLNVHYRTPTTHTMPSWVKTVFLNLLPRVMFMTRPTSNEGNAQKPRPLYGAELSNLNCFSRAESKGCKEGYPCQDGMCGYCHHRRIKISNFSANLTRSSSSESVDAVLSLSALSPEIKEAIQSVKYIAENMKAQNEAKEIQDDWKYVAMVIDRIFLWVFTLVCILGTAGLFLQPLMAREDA
a6/a3b2b3, sequence (P17787 26-502): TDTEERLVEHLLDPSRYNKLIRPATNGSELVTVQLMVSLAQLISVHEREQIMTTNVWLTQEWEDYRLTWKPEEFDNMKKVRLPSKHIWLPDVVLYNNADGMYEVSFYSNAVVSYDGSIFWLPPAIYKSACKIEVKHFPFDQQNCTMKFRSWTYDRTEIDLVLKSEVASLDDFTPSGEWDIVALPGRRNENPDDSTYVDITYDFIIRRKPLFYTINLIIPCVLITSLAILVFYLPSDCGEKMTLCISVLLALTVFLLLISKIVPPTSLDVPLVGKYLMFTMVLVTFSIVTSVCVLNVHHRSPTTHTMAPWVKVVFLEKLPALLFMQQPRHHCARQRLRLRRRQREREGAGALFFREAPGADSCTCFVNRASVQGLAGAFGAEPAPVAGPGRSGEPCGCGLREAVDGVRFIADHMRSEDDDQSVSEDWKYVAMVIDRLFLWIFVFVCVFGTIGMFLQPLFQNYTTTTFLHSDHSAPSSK
a6/a3b2b3, sequence (Q05901 25-458 partner limits assumed): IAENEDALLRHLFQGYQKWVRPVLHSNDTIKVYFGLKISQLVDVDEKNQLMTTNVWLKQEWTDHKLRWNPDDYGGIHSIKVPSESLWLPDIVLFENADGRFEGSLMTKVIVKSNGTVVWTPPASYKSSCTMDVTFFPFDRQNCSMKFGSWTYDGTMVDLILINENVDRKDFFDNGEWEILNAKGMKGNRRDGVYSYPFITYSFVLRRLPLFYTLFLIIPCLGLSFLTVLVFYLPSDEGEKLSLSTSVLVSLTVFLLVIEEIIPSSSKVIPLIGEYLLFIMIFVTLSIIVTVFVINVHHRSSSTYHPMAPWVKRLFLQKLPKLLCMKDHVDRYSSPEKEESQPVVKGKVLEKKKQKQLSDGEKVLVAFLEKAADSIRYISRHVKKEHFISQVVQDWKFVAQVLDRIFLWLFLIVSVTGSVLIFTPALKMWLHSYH
T1 sequence (P09483 31-630): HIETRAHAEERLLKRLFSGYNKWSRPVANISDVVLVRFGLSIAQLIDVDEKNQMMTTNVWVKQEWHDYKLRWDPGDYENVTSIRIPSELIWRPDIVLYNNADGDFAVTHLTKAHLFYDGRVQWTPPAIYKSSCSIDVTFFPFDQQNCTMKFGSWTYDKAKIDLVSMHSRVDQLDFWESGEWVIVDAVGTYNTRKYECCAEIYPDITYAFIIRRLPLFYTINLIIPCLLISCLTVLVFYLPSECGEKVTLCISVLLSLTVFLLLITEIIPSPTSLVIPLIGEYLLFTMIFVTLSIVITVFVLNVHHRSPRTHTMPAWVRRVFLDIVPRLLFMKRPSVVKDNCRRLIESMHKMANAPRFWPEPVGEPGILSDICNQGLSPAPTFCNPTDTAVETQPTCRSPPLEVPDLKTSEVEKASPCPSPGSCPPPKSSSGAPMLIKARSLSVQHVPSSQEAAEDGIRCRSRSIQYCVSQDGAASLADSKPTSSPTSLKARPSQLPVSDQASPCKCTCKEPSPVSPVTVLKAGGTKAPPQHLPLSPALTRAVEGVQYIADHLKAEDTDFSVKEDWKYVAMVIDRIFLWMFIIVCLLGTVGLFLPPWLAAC
T1 sequence (P12390 25-500): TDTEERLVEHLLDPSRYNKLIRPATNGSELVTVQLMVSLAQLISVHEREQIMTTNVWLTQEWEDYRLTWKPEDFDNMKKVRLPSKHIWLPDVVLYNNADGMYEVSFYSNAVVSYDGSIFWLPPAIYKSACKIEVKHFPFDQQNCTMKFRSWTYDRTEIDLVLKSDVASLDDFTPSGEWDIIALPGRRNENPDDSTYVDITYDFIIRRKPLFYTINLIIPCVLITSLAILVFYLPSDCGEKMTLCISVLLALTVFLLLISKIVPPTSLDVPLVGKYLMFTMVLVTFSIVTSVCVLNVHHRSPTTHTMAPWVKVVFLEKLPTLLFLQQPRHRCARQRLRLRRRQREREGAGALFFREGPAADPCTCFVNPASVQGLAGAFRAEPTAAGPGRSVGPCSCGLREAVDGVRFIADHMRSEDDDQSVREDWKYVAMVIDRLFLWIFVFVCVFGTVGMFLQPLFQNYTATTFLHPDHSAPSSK
human α4β2, sequence (P43681 29-627 limits assumed): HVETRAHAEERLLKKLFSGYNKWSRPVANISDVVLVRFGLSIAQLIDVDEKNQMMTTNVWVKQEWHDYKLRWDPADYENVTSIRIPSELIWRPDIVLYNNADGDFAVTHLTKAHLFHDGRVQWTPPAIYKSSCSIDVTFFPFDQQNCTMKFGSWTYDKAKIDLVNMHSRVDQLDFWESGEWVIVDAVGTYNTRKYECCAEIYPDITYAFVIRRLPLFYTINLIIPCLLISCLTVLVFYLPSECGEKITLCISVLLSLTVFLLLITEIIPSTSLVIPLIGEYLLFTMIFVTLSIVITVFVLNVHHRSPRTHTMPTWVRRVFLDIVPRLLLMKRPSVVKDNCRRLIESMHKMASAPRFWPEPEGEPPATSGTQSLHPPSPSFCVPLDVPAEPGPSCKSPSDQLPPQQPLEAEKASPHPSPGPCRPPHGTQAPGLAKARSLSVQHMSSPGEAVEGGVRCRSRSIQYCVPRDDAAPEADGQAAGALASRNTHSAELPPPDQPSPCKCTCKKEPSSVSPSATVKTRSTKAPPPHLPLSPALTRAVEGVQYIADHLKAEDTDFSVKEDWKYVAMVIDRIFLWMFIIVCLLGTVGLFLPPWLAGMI
human α4β2, sequence (P17787 26-502): as the sequence (P17787 26-502) above
high and low sensitivity alpha4beta2-containing NNR subtypes, sequence (P43681 29-627 limits assumed): as the sequence (P43681 29-627 limits assumed) above
high and low sensitivity alpha4beta2-containing NNR subtypes, sequence (P17787 26-502): as the sequence (P17787 26-502) above

## C(=C\[C@H]1CCNC1)/c1cncnc1 [Compound 1, (R)-5-((E)-2-pyrrolidin-3-ylvinyl)pyrimidine]
[1]; Rat a4b2, assay and tissue type not given
  Ki: 34 nM
[1]; [3H]-S-nicotine, rat brain cortical membranes
  Ki: 27 nM
[2]
  Ki: 17 nM
[3]; Human a6/a3b2b3
  (Imax): 49
  IC50: 2800 nM
[3]; Human a6/a3b2b3, Ca++ Flux
  DC50: 31 nM
  Dmax: 99%
  EC50: 470 nM
  Emax: 92%
[4]
  activity at high and low sensitivity alpha4beta2-containing NNR subtypes: agonist activity
[5]
  binding affinity: nicotinic receptors (100%), the only
[6]
  analgesic effects after formalin injection, Day 1: mg/kg) and Aspirin at 100 mg/kg failed
[7]; 3 weeks post-dosing, only the 0.1 mg/kg dose
  allodynia vs vehicle-treated group: significantly different from vehicle.
[7]; once daily po 0.01, 0.1, 1.0 mg/kg, all doses, 4 weeks post-paclitaxel dosing
  allodynia vs vehicle-treated group: at all doses significantly reduced
[7]; paclitaxel-induced, 0.01-1 mg/kg p.o.
  reversing tactile allodynia: efficacious
[8]; 0.5 and 2 hr post-dosing, Compound 1 0.1 and 1 mg/kg po, Gabapentin 100 mg/kg ip
  allodynia, acute dosing: significantly reversed; also recorded: Acute Dosing - Compound 1 reversed
[8]; animal models of neuropathic pain, compared to gabapentin
  onset of action: 30 min
[8]; once daily 0.1, 1, 10 mg/kg po, all doses, 6 weeks post-STZ dosing
  allodynia, repeat dosing: significantly reversed; also recorded: all dosessignificantly reduced
[8]; repeat dosing, 4 weeks post-dosing
  dose levels producing reversal of mechanical allodynia: 4 weeks post-dosing, no dose
[9]; 30 mg/kg, 15 days cross-challenge
  interaction between Compound 1 and nicotine in behavioral sensitization: daily for 15 days indicated no interaction
[9]; Compound 1 3, 10, 30 mg/kg po
  behavioral sensitization (motor activity): no noteworthy changes; also recorded: not associated with behavioral
[10]; 10, 30, 100 mg/kg po
  convulsions in combination with subconvulsant pentylenetetrazole: no noteworthy changes; also recorded: not did not induce convulsions. D-
[10]; po with pentylenetetrazole
  NOEL, convulsant properties: The NOEL was 100 mg/kg.
[11]; 30 μM
  lengthening of action potential duration: 7%
[11]; 100 μM
  lengthening of action potential duration: 20%
[11]; any concentration (3-100 μM)
  resting membrane potential, action potential amplitude, Vmax: no effect on resting membrane potential,
[11]; at 3 and 10 μM
  action potential duration: no effect
[11]; at 30 and 100 μM, concentration dependent
  action potential duration: dependent lengthening of the action
[12]; 0.1N HCl, simulated gastric fluid
  solubility: > 10000 µg/mL
[12]; Water (pH 5.9)
  solubility: > 10000 µg/mL
[12]; aqueous buffer, 0.1M citrate buffer (pH 4.0)
  solubility: > 10000 µg/mL
[12]; aqueous buffer, 0.1M phosphate buffer (pH 6.8)
  solubility: > 10000 µg/mL
[13]; 6 month, 40° C./75% RH
  assay value: < 98%
[13]; 9 month, 30° C./65% RH
  assay value: < 98%
[13]; 25° C./60% RH, 1 M
  Assay (HPLC-UV): 102.4%
  Related Substances, RRT = 0.26: 0.09 % w/w
  Total Related Substances: 0.09%
  Water Content (Karl Fischer): 12.10 % w/w
[13]; 25° C./60% RH, 3 M
  Assay (HPLC-UV): 100.2%
  Related Substances, RRT = 0.26: 0.09 % w/w
  Total Related Substances: 0.09%
  Water Content (Karl Fischer): 12.25 % w/w
[13]; 25° C./60% RH, 6 M
  Assay (HPLC-UV): 98.9%
  Total Related Substances: 0.05%
  Water Content (Karl Fischer): 12.04 % w/w
[13]; 25° C./60% RH, 9 M
  Assay (HPLC-UV): 99.7%
  Related Substances, RRT = 0.26: 0.09 % w/w
  Total Related Substances: 0.12%
  Water Content (Karl Fischer): 11.52 % w/w
[13]; 25° C./60% RH, 12 M
  Assay (HPLC-UV): 101.2%
  Chiral Purity: 100 % ee
  Related Substances, RRT = 0.18: 0.10 % w/w
  Related Substances, RRT = 0.88: 0.05 % w/w
  Total Related Substances: 0.16%
  Water Content (Karl Fischer): 11.52 % w/w
[13]; 25° C./60% RH, 18 M
  Assay (HPLC-UV): 100.4%
  Related Substances, RRT = 0.26: 0.07 % w/w
  Total Related Substances: 0.07%
  Water Content (Karl Fischer): 11.50 % w/w
[13]; 25° C./60% RH, 24 M
  Assay (HPLC-UV): 100.0%
  Chiral Purity: 100 % ee
  Related Substances, RRT = 0.26: 0.05 % w/w
  Total Related Substances: 0.05%
  Water Content (Karl Fischer): 11.42 % w/w
[13]; 25° C./60% RH, 36 M
  Assay (HPLC-UV): 99.7%
  Chiral Purity: 100 % ee
  Related Substances, RRT = 0.26: 0.04 % w/w
  Total Related Substances: 0.04%
  Water Content (Karl Fischer): 11.53 % w/w
[13]; 25° C./60% RH, Initial
  Assay (HPLC-UV): 100.9%
  Chiral Purity: 100 % ee
  Related Substances, RRT = 0.26: 0.05 % w/w
  Total Related Substances: 0.05%
  Water Content (Karl Fischer): 11.36 % w/w
[13]; real time 25° C./60% RH data
  time for which drug substance is considered stable: at least 36 months
[14]
  Tmax: 0.167 to 2.25 h
[15]; Day 1, 2-week study
  emesis: 6/6
[15]; Day 14, 2-week study
  emesis: 5/6
[15]; both sexes, cynomolgus, monkey, in vivo, oral 10-100 mg/kg/day, 2-week and 13-week studies
  Tmax: 0.5 to 6 h
[15]; either study
  accumulation: Little to no accumulation
  gender effect: no gender effect
[16]
  blood plasma ratio: 0.78 to 1.26
